Assay results reported in patent US11731977B2, “SGC stimulators” (Cyclerion Therapeutics, Inc., priority 2016, dated 2023).

Experiments:
sGC enzyme = target: T1, sGC enzyme (Homo sapiens, UniProt Q02108+Q02153); test: cGMP GloSensor cell-based assay, 384-well format (Example 2a); details: HEK293 GloSensor 40F cGMP cells; 10 μM DETA-NONOate; 50% of high control (30 μM Compound Y); read-out: Abs EC50
T1 construct: sGC enzyme activity values in HEK cells, determined by the GloSensor assay; host or cells: HEK293 cells stably expressing GloSensor 40F cGMP biosensor
T1 sequence (Q02153 1-619): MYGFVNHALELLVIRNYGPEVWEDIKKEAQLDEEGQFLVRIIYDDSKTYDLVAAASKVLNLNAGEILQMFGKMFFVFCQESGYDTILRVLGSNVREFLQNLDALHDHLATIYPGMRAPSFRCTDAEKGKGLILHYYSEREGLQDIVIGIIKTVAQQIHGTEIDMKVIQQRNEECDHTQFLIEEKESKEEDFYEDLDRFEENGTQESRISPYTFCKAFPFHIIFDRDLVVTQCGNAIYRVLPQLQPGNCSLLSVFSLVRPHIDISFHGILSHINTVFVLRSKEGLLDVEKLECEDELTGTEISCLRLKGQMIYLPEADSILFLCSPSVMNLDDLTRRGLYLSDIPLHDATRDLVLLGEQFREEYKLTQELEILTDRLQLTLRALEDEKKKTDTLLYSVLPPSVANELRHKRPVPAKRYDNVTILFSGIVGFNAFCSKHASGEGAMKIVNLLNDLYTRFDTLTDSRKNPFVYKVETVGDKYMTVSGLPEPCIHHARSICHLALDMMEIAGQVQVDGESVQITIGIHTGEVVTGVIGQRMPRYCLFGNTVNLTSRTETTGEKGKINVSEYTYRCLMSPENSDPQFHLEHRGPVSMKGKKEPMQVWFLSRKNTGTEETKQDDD
T1 sequence (Q02108 1-690): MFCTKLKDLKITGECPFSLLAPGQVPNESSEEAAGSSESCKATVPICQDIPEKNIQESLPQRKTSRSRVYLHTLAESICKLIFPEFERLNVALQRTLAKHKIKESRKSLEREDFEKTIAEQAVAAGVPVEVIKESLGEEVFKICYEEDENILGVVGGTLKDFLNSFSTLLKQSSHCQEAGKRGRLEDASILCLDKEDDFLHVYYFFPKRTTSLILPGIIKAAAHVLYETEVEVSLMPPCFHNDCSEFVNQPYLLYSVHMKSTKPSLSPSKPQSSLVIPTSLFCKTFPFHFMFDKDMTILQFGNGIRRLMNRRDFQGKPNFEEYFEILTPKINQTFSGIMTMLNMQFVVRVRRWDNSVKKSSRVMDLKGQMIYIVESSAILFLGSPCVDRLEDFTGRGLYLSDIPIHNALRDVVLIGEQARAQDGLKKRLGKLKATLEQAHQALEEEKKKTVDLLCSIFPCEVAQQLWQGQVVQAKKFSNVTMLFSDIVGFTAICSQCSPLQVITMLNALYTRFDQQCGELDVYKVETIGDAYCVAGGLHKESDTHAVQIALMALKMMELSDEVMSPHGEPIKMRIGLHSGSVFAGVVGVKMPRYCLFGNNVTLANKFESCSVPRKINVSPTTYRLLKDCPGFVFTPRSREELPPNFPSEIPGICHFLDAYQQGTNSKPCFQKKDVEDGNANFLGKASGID
Text: Human embryonic kidney cells (HEK293) cells expressing GloSensor™ 40F cGMP (Part No: CS182801, Promega) were used to evaluate the activity of test compounds. The luminescent biosensors (engineered luciferase) that were incorporated into these cells detect cGMP formed by the compounds stimulating the sGC enzyme and emit luminescence.
cGMP GloSensor cells were maintained in Dulbecco's Modification of Eagle's Medium (DMEM) supplemented with fetal bovine serum (FBS, 10% final) and hygromycine (200 ug/ml). The day before assay, cells were plated in DMEM with 10% FBS in a 50 μL volume at a density of 1.5×10^4 cells/well in a poly-D-lysine coated 384-well flat white-bottom plate (Corning Cat No 35661). Cells were incubated overnight at 37° C. in a humidified chamber with 5% CO2. The next day, medium was removed and cells were replaced with 40 ul/well of GloSensor™, 2 mM (Promega Cat No E1291). Cells were treated for 90 minutes at 25° C. to allow the substrate to equilibrate in the cells. Test compounds and Diethylenetriamine NONOate (DETA-NONOate, or DETA-NO) was diluted to 3 mM (20×) in serum-free CO2 independent medium and serially diluted at 4× dilutions to create 5× dose curve from which 10 ul was added to the wells (x μM concentration for test compound solution and 10 μM concentration for DETA-NONOate solution; wherein x is one of the following final concentrations: 30000 nM, 7500 nM, 1875 nM, 468.8 nM, 117.2 nM, 29.29 nM, 7.320 nM, 1.830 nM, 0.460 nM, 0.114 nM, and 0.029 nM).
For the kinetics studies, luminescense was measured right away for 0.2 sec per well with Envision (Perkin Elmer). For endpoint SAR screening, data were collected after 55 min incubation at room temperature.
Data were normalized to a high control using the following equation: 100*(Sample−Low Control)/(High Control−Low Control), where the low control is the average of 16 samples treated with 1% DMSO, and the high control is the average of 16 samples treated with 30 μM of Compound Y depicted below. Data were fit using a 4-parameter fit (log(agonist) vs. response—variable slope) using GraphPad Prism Software v.5. n=2 for all compounds. The Absolute (Abs) EC50 was interpolated from the curve fit and is defined as the concentration at which a given compound elicits 50% of the high control response after data normalization as indicated above. Compounds failing to elicit a minimum response of 50% are reported as >30 μM or ND. For compounds run in duplicate or n higher than 2, the result herein given is the geometric mean of the several results obtained.

[1] = test system: cGMP in rat primary neurons; test: cGMP neuronal cell-based assay (Example 3); details: Primary neuron; rat primary hippocampal neurons; 30 μM DETA-NO; cGMP by LC-MS/MS; 50% of high control (10 μM Compound Y); read-out: Abs EC50
Experimental: Rat primary neurons were isolated from fetuses of 18-day pregnant Sprague-Dawley females. The fetuses were collected in Hanks' balanced salt solution (HBSS) and brains were rapidly removed. The cerebral hippocampi were isolated and mechanically fragmented. Further tissue digestion was performed with 0.25% (wt/vol) trypsin solution in HBSS without Ca2+ and Mg2+ for 15 min at 37° C. After trypsination, cells were washed and resuspended in neurobasal medium supplemented with 0.5 mM L-glutamine, 12.5 uM glutamic acid, 2% B-27 and 100 U/mL penicillin, and 100 μg/mL streptomycin. Cells were plated at a density of 4×10^4 cells/well in a poly-D-lysine coated 384-well flat clear-bottom plate (Corning Cat No 354662). Cells were incubated 6-7 days at 37° C. in a humidified chamber with 5% CO2. Media was removed and cells were washed 1× with HBSS containing Ca2+ and Mg2+, and replaced with 40 uL HBSS containing 0.5 mM IBMX, and incubated for 15 minutes at 37° C. 10 uL of a 5× stock of test compounds with diethylenetriamine NONOate (DETA-NO) was added. Final concentration of DETA-NO was 30 μM. Cells were incubated for 20 min at 37° C. Medium was removed, 50 uL of ice-cold 10% acetic acid was added, and incubated for 60 minutes at 4° C. Following centrifugation at 4° C. for 5 minutes at 1000×g to pellet cell debris, the supernatant was aspirated to a clean plate and the samples were analyzed for cGMP content. cGMP concentrations were determined from each sample using LC-MS/MS.
Data were normalized to a high control using the following equation: 100*(Sample−Low Control)/(High Control−Low Control), where the low control is the average of 15 samples treated with 1% DMSO, and the high control is the average of 15 samples treated with 10 μM a known sGC stimulator Compound Y. Data were fit using a 4-parameter fit (log(agonist) vs. response—variable slope) using GraphPad Prism Software v.5. n=2 for all compounds. The Absolute EC50 was interpolated from the curve fit and is defined as the concentration at which a given compound elicits 50% of the high control response. Compounds failing to elicit a minimum response of 50% are reported as >30 μM. For compounds run in duplicate or n higher than 2, the result herein given is the geometric mean of the several results obtained.

[2] = Rat cerebrospinal fluid (CSF) pharmacokinetic properties (Example 4); format: in vivo; details: male, Sprague-Dawley, 10 mg/kg PO, 1 h; for Kp uu at 1 h: unbound CSF/unbound plasma, read-out: Kp,uu (@ 1 h); for concentration at 1 h: CSF, read-out: CSF Conc. (nM @ 1 h)
Experimental: Protocol PK in rats was determined following oral dosing. For the oral (PO) experiments, a group of 6 male Sprague-Dawley rats with an indwelling catheter placed in the cistema magna were used. The PO group was dosed with 10 mg/kg or 1 mg/kg of a compound formulated as a solution in PEG400. PO doses were administered by oral gavage and delivered to the stomach using a syringe and gavage tube. Following oral dosage administration, the gavage tube was flushed with approximately 0.5 mL of water to ensure complete delivery of the full dose.
Plasma samples were collected as follows: samples of CSF and blood were collected at 1 hour, 2, and optionally at 4 hours post-dosing. CSF samples (0.05 mL) were collected through the intracisternal catheter. Blood samples (0.25 mL) were collected through retro-orbital sampling. These samples were kept on ice until processed for plasma. Blood samples were centrifuged at 3200 rpm for 5 minutes at approximately 5° C. within 1 hour of collection. Plasma was directly transferred to a 96-well plate tube (0.125 mL). Plug caps were placed on the tubes and the tubes frozen at approximately −70° C. and stored until analysis. Plasma was collected and analyzed for the presence of a compound.
Quantitation of Compounds. The compound in question and the internal standard were extracted from plasma and CSF by precipitation. Samples were analyzed using liquid chromatography (LC) with tandem mass spectrometric detection (MS/MS) using electrospray ionization. The standard curve range was from 1 to 1000 ng/mL. Results of the compounds described herein in this assay are illustrated in Table 4a below (10 mg/kg dose) and Tables 4b and 4c below (1 mg/kg).
Kp,uu is defined as the concentration ratio of unbound drug in CSF to unbound drug in plasma. Unbound drug in plasma (or free plasma concentration) is calculated by multiplying the total plasma concentration by the unbound fraction as determined by plasma protein binding. The CSF concentration is then divided by the free plasma concentration to determine the Kp,uu. (See e.g., Di et al., J. Med. Chem., 56, 2-12 (2013))

| Structure (SMILES) | EC50 (sGC enzyme) [nM] | EC50 [1] [nM] | Kp uu at 1 h [2] | concentration at 1 h [2] [nM] |
| --- | --- | --- | --- | --- |
| Cc1ccc(Cc2nc(-c3nc(C(F)(F)F)n[nH]3)cn3ccnc23)cc1F [Compound I-27, 8-(3-Fluoro-4-methylbenzyl)-6-(3-(trifluoromethyl)-1H-1,2,4-triazol-5-yl)imidazo[1,2-a]pyrazine] | ≤ 100 |  | 0.2 | 41 |
| FC(F)(F)c1n[nH]c(-c2cn3ccnc3c(Cc3ccccc3)n2)n1 [Compound I-6, 8-Benzyl-6-(3-(trifluoromethyl)-1H-1,2,4-triazol-5-yl)imidazo[1,2-a]pyrazine] | 100 to 1000 | ≤ 100 |  |  |
| Fc1ccc(F)c(Cc2nc(-c3nc(C(F)(F)F)n[nH]3)cn3ccnc23)c1 [Compound I-8, 8-(2,5-Difluorobenzyl)-6-(3-(trifluoromethyl)-1H-1,2,4-triazol-5-yl)imidazo[1,2-a]pyrazine] | ≤ 100 | ≤ 100 |  |  |
| Fc1ccccc1Cc1nc(-c2nc(C(F)(F)C(F)(F)F)n[nH]2)cn2ccnc12 [Compound I-5, 8-(2-Fluorobenzyl)-6-(3-(perfluoroethyl)-1H-1,2,4-triazol-5-yl)imidazo[1,2-a]pyrazine] | ≤ 100 | ≤ 100 |  |  |
| FC(F)(F)c1n[nH]c(-c2cn3ncnc3c(Cc3ccccc3)n2)n1 [Compound I-15, 8-Benzyl-6-(3-(trifluoromethyl)-1H-1,2,4-triazol-5-yl)-[1,2,4]triazolo[1,5-a]pyrazine] | 100 to 1000 | 100 to 1000 |  |  |
| Cc1ccc(Cc2nc(-c3nc(C(F)F)n[nH]3)cn3ccnc23)cc1F [Compound I-28, 6-(3-(Difluoromethyl)-1H-1,2,4-triazol-5-yl)-8-(3-fluoro-4-methylbenzyl)imidazo[1,2-a]pyrazine] | ≤ 100 |  | 0.2 | 20 |

The remaining lines, values ahead:

| EC50 (sGC enzyme) [nM] | EC50 [1] [nM] | Kp uu at 1 h [2] | concentration at 1 h [2] [nM] | Structure (SMILES) |
| --- | --- | --- | --- | --- |
| > 1000 | > 1000 |  |  | FC(F)(F)c1n[nH]c(-c2cn3ccnc3c(CCC(F)(F)C(F)(F)F)n2)n1 [Compound I-13, 8-(3,3,4,4,4-Pentafluorobutyl)-6-(3-(trifluoromethyl)-1H-1,2,4-triazol-5-yl)imidazo[1,2-a]pyrazine] |
| 100 to 1000 | 100 to 1000 |  |  | FC(F)c1n[nH]c(-c2cn3ccnc3c(Cc3ccccc3)n2)n1 [Compound I-7, 8-Benzyl-6-(3-(difluoromethyl)-1H-1,2,4-triazol-5-yl)imidazo[1,2-a]pyrazine] |
| 100 to 1000 | 100 to 1000 |  |  | Fc1ccc(Cc2nc(-c3nc(C(F)(F)F)n[nH]3)cn3ccnc23)cc1 [Compound I-12, 8-(4-Fluorobenzyl)-6-(3-(trifluoromethyl)-1H-1,2,4-triazol-5-yl)imidazo[1,2-a]pyrazine] |
| ≤ 100 | ≤ 100 |  |  | Fc1ccc(F)c(Cc2nc(-c3nc(C(F)F)n[nH]3)cn3ccnc23)c1 [Compound I-9, 8-(2,5-Difluorobenzyl)-6-(3-(difluoromethyl)-1H-1,2,4-triazol-5-yl)imidazo[1,2-a]pyrazine] |
